Several values for one entry are separate records, joined by “and”; a condition that tells them apart may be missing. Equal values may be shown once.
Legend:
Assay type in all cases: biochemical
β-secretase (BACE) [1] = target: T1, β-secretase (BACE) (Homo sapiens, UniProt P56817); assay: BACE % Inhibition Assay ((Aedens)-[…]-(Dabcyl K-amide) substrate); conditions: % error ±10%; for inhibition at 3 µM: 3 μM compound; for inhibition at 10 µM: 10 μM compound
T1 construct: purchased Panvera
Experimental: (§1) The substrate stock solution was prepared in DMSO as a 10 mg/mL solution. The substrate working solution was prepared by diluting the 10 mg/mL stock solution with substrate assay buffer to a final concentration of […]. The β-secretase (BACE) working solution was prepared by diluting a 0.83 mg/mL BACE stock solution with enzyme assay buffer to a final concentration of 4 μg/mL.
Test compounds were dissolved in DMSO to 10 mM.
The screening procedure for this assay was as follows: 15 μL of BACE working solution was pipetted into each well of a 96-well plate. To each well was then pipetted 2 μL of test compound at the selected concentration. Test compound and BACE were then mixed with a pipettor and incubated for 20 min at room temperature. To each well was then added 10 μL of the substrate working solution. The plates were then incubated for 1 hour at room temperature.
The procedure for the blank was as follows. 15 μL of assay buffer was pipetted into each well to be used as a blank control. To each well was then added 2 μL of vehicle and 10 μL of substrate working solution. The plates were then incubated for 1 hour at room temperature.
The procedure for the positive control was as follows: 15 μl of BACE working solution was pipetted into each well to be used as a positive control. To each well was then pipetted 2 μL of vehicle. Vehicle and BACE were then mixed with a pipettor and incubated for 20 min at room temperature. To each well was then added 10 μL of the substrate working solution. The plates were the incubated for 1 hour at room temperature.
For test compounds, % inhibition was determined at each concentration as follows: […]

β-secretase (BACE) [2] = target: T1, β-secretase (BACE); assay: BACE Assay-2 (FS1 substrate, IC50 and Ki); conditions: procedure of Example 159, FS1 substrate
Experimental: as §1, with “The FS1-substrate” for “The substrate”
Test compounds were dissolved in DMSO at 10 mM.
The procedure for this assay was as follows: 15 μL of BACE working solution was pipetted into each well of a 96-well plate. To each well was then pipetted 2 μL of test compound at the selected concentration. Test compound and BACE were then mixed with a pipettor and incubated for 20 min at room temperature. To each well was then added 10 μL of the FS1 substrate working solution.
The procedure for the positive control was as follows:15 μL of BACE working solution was pipetted into each well to be used as a positive control. To each well was then pipetted 2 μL of vehicle. Vehicle and BACE were then mixed with a pipettor and incubated for 20 min at room temperature. To each well was then added 10 μL of the FS1 substrate working solution.
For test compounds, measured at multiple concentrations, the measured T0 and T60 values were used to calculate an IC50 value using Graphpad Software (or PIR). For test compounds, Ki inhibition was determined as follows: For each compound concentration and positive control, rate of cleavage of substrate (Vi, where i=compound concentration in μM) was determined as Δ Fluorescence/Δ time (min). Cleavage rates (Vi) were plotted as a function of inhibitor concentration in μM [I]. The Ki was then determined by fitting the following equation to the graph of [I] vs Vi Y=aVmax/(50+24*(1+X/Ki)),

β-secretase (BACE) [3] = target: T1, β-secretase (BACE); assay: BACE Assay-1 (MCA-substrate, IC50); conditions: procedure of Example 158
Experimental: The following standards are reagents were used in this assay: Sodium Citrate trisodium salt dihydrate (Sigma), Citric Acid monohydrate (Merck), PEG8000 (Sigma), MCA-substrate (Bachem), β-secretase (BACE) (Panvera), 96-well plate zwart (Costar (Elscolab)), StatVal (Bachem).
The following standard assay buffer solution was prepared and used in this assay: 0.05 M, pH 5.0 mixture of sodium citrate trisodium salt dihydrate (9.56 g), citric acid monohydrate (3.68 g) and PEG8000 (0.50 g).
The MCA-substrate stock solution was prepared by mixing 10 mg MCA-substrate with 5 mL DMSO for a final solution concentration of 2.0 mg/mL. The substrate work solution was prepared by mixing 0.1 mL substrate in 1.90 mL assay buffer for a final concentration of 0.05 mM. The β-secretase (BACE) work solution was prepared by mixing 8 μL BACE in 2 mL assay buffer for a final concentration of 10 µg/mL.
The screen procedure for this assay was as follows. 60 μL of assay buffer was pippeted into each well of a 96-well plate. To each well was then pipetted 1 μL of test compound at the selected concentration. To each well was then added 20 μL of the β-secretase work solution and […] of the MCA-substrate stock solution.
The procedure for the blank was as follows. 80 μL of assay buffer was pipetted into each well to be used as a blank control. To each well was then added 1 μL of DMSO and 20 μL of MCA-substrate solution in each well.
The procedure for the positive control was as follows. 60 μL of assay buffer was pipetted into each well to be used as a positive control. To each well was then added 1 μL of DMSO, 20 μL of BACE work solution and 20 μL of MCA-substrate stock solution.
For test compounds, measured at multiple concentrations, the measured T0 and T60 values were used to calculate an IC50 value using Graphpad Software (or PIR).

β-secretase (BACE) [4] = target: T1, β-secretase (BACE); assay: BACE FS1 % Inhibition Assay; conditions: read-out: % Inhibition (FS); for inhibition at 0.3 µM: 0.3 μM test compound; for inhibition at 1 µM: 1 μM test compound; for inhibition at 3 µM: 3 μM test compound
Method in brief: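 Percent inhibition per compound concentration was referenced to vehicle-treated enzyme and no-enzyme wells. Enzyme at a 4 μg/mL working stock plus compound was mixed for 20 min at room temperature before the FS1 substrate (300 μg/mL working stock) was added for a 1 h room-temperature reaction.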

T1 sequence (P56817 46-501): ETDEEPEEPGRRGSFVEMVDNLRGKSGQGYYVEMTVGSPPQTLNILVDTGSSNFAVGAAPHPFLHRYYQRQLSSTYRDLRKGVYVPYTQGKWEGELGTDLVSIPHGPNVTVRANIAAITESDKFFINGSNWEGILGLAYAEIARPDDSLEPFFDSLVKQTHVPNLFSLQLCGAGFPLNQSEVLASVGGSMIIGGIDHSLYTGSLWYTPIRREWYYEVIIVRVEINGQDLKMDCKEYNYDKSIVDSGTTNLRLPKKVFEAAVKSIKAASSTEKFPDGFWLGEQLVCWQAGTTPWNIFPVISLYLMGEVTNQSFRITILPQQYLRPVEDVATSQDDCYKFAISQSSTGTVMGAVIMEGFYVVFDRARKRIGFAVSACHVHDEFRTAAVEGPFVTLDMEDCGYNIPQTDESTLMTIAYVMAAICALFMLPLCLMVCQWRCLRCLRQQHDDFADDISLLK

Structure (SMILES) | Ki (β-secretase (BACE) [2]) | IC50 (β-secretase (BACE) [3]) [µM] | other results
CCCN1Cc2cc(Oc3cccc(N(C#N)CC4CCCCC4)c3)ccc2N=C1N [Compound 56] | 0.77 µM | 0.97 | inhibition at 3 µM (β-secretase (BACE) [1]): 35%; inhibition at 10 µM (β-secretase (BACE) [1]): 79%; IC50 (β-secretase (BACE) [2]): 5.4 µM
CSc1ccccc1-c1ccc2c(c1)CN(Cc1cccc(C(=O)N(C)C3CCCCC3)c1)C(N)=N2 [Compound 322] | 0.29 µM | 0.14 | inhibition at 0.3 µM (β-secretase (BACE) [4]): < 30%; inhibition at 1 µM (β-secretase (BACE) [4]): < 30%; inhibition at 3 µM (β-secretase (BACE) [4]): 95%
CCCN1Cc2cc(Oc3cccc(CNCc4cccc(O)c4)c3)ccc2N=C1N [Compound 305] |  | 1.4 | 
CCCN1Cc2cc(Oc3cccc(CNCc4ccccc4OC)c3)ccc2N=C1N [Compound 335] |  | 0.24 | 
CCCC(CCC(=O)N(C)C1CCCCC1)N1Cc2cc(Oc3ccccc3)ccc2N=C1N (stereo not drawn) [Compound 86] | 0.13 µM | 0.048 | inhibition at 3 µM (β-secretase (BACE) [1]): 72%; inhibition at 10 µM (β-secretase (BACE) [1]): 80%
NC1=Nc2ccc(Oc3cccc(NS(=O)(=O)c4ccccc4)c3)cc2CN1CCCCC(=O)N(C1CCCCC1)C1CCCCC1 [Compound 113] |  | 0.99 | 
CCCN1Cc2cc(Oc3cccc(CNCc4c(OC)cccc4OC)c3)ccc2N=C1N [Compound 340] |  | 2 | 
CN(C(=O)CC(CC(=O)N(C)C1CCCCC1)N1Cc2cc(Oc3ccccc3)ccc2N=C1N)C1CCCCC1 [Compound 107, 3-(2-Amino-6-phenoxy-4H-quinazolin-3-yl)-pentanedioic acid bis-(cyclohexyl-methyl-amide)] | 1.2 µM | 0.82 | inhibition at 3 µM (β-secretase (BACE) [1]): 48%; inhibition at 10 µM (β-secretase (BACE) [1]): 78%; IC50 (β-secretase (BACE) [2]): 4.58 µM
CCCN1Cc2cc(Oc3cccc(CNS(=O)(=O)c4ccccc4)c3)ccc2N=C1N [Compound 225] |  | 2.9 | 
CN(C(=O)CCCN1Cc2cc(C(=O)c3ccccc3)ccc2N=C1N)C1CCCCC1 [Compound 10] |  | 3.7 | 
CCCN1Cc2cc(Oc3cccc(NC(=O)C4CCCCC4)c3)ccc2N=C1N [Compound 44] | 3.3 µM | 6.1 | inhibition at 3 µM (β-secretase (BACE) [1]): < 30%; inhibition at 10 µM (β-secretase (BACE) [1]): 31%
NC1=Nc2ccc(Oc3ccccc3)cc2CN1C(CNC(=O)C1CCCC1)C1CCCCC1 (stereo not drawn) [Compound 295] | 0.03 µM | 0.016 | inhibition at 0.3 µM (β-secretase (BACE) [4]): 79%; inhibition at 1 µM (β-secretase (BACE) [4]): 106%; inhibition at 3 µM (β-secretase (BACE) [4]): 116%

Now from value to compound, other results behind:

Ki (β-secretase (BACE) [2]) | IC50 (β-secretase (BACE) [3]) [µM] | Structure (SMILES) | other results
 | 1.3 | CCCN1Cc2cc(Oc3cccc(CN(C)Cc4c(C)cc(C)cc4C)c3)ccc2N=C1N [Compound 464] | 
 | 2.8 | CCCN1Cc2cc(Oc3cccc(CNCCCc4ccccc4)c3)ccc2N=C1N [Compound 430] | 
0.74 µM | 1.1 | NC1=Nc2ccc(Oc3ccccc3)cc2CN1[C@H](CNC(=O)C1CCCCC1)C1CCCCC1 [Compound 484] | inhibition at 0.3 µM (β-secretase (BACE) [4]): < 30%; inhibition at 1 µM (β-secretase (BACE) [4]): < 30%; inhibition at 3 µM (β-secretase (BACE) [4]): 62%
0.018 µM and 0.0075 µM | 0.03 | COc1ccccc1-c1ccc2c(c1)CN([C@@H](CCC(=O)N(C)C1CCCCC1)C1CCCCC1)C(N)=N2 [Compound 506] | inhibition at 0.3 µM (β-secretase (BACE) [4]): 106%; inhibition at 1 µM (β-secretase (BACE) [4]): 115%; inhibition at 3 µM (β-secretase (BACE) [4]): 128%
 | 0.058 | CCCN1Cc2cc(Oc3cccc(CNCc4c(C)cc(C)cc4C)c3)ccc2N=C1N [Compound 344] | 
 | 0.17 | CCCN1Cc2cc(Oc3cccc(CNC(=O)c4c(C)cc(C)cc4C)c3)ccc2N=C1N [Compound 533] | 
